What was measured:
Format in all cases: functional
[1] = system: P388; assay: In vivo antineoplastic activity against mouse P388 cells assessed as life extension at 3.1 mg/kg
[2] = system: P388; assay: In vivo antineoplastic activity against mouse P388 cells assessed as life extension at 46 to 92 ug/kg
[3] = system: P388; assay: In vivo antineoplastic activity against mouse P388 cells assessed as life extension at 46 to 185 ug/kg

`CC(C)=CCc1cc(O)ccc1O` [PRENYLHYDROQUINONE] showed an Activity [1] of 38%.

Work on `CCCC(=O)O[C@H]1/C(=C/C(=O)OC)C[C@@H]2C[C@H]([C@@H](C)O)OC(=O)C[C@H](O)C[C@@H]3C[C@H](OC(=O)CC(C)C)C(C)(C)[C@](O)(C[C@@H]4C/C(=C/C(=O)OC)C[C@H](/C=C/C(C)(C)[C@]1(O)O2)O4)O3` [BRYOSTATIN 4] yielded an Activity [2] of 62%.

`COC(=O)/C=C1/C[C@H]2C[C@]3(O)O[C@H](C[C@@H](O)CC(=O)O[C@@H]([C@@H](C)O)C[C@H]4C/C(=C\C(=O)OC)[C@H](OC(C)=O)[C@@](O)(O4)C(C)(C)/C=C/[C@@H](C1)O2)C[C@H](OC(=O)CC(C)C)C3(C)C` [BRYOSTATIN 5] showed an Activity [3] of 45%.

— ChEMBL document CHEMBL1149002, “Antineoplastic agents, 116. An evaluation of the marine ascidian Aplidium californicum” (1986)
